No end group written: not given here.
Tested on: CEA CTL T-Vac8
Assay: CTL cytotoxicity screening of the CAP1 analog panel, 111In release from peptide-incubated C1R-A2 cells
Assay type: cell-based, human
Details: peptide at 1, 0.1 and 0.01 µg/ml, E:T=1.45:1, isotope release after 4 hours

Compound | activation of T-Vac8 cytotoxicity (lysis of peptide-incubated targets)
CC(C)C[C@H](NC(=O)[C@H](CC(N)=O)NC(=O)[C@H](CC(C)C)NC(=O)[C@H](CC(=O)O)NC(=O)[C@H](C)NC(=O)CNC(=O)[C@H](CO)NC(=O)[C@H](CC(C)C)NC(=O)[C@@H](N)Cc1ccc(O)cc1)C(=O)O [CAP1-6D] | activated T-Vac8 cytotoxicity and seemed to be equal to or better than CAP1
CC[C@H](C)[C@H](NC(=O)[C@H](CC(N)=O)NC(=O)[C@H](C)NC(=O)CNC(=O)[C@H](CO)NC(=O)[C@H](CC(C)C)NC(=O)[C@@H](N)Cc1ccc(O)cc1)C(=O)N[C@@H](CC(N)=O)C(=O)N[C@@H](CC(C)C)C(=O)O [CAP1-7I] | appeared to be active
YLSGACLNL [CAP1-6C] | activated T-Vac8 cytotoxicity and seemed to be equal to or better than CAP1
YLSGFNLNL [CAP1-5F] | provided stimulation, albeit at reduced levels compared to CAP1 itself
YLSGINLNL [CAP1-5I] | provided stimulation, albeit at reduced levels compared to CAP1 itself
YLSGSNLNL [CAP1-5S] | provided stimulation, albeit at reduced levels compared to CAP1 itself
